The test system of this test is strain DSM 21069 (isolate MP28-13). As to the kind of experiment: Antibiotic resistance characteristics of strain DSM 21069. Type of test: cell-based, Streptomyces.

The values below come from patent US9217150B2, “NRPS-PKS gene cluster and its manipulation and utility” (SINTEF TTO AS, priority 2008, dated 2015).

Consider `[H]/N=C(/N)N[C@H]1[C@H](O)[C@@H](O)[C@H](O[C@@H]2O[C@@H](C)[C@](O)(C=O)[C@H]2O[C@@H]2O[C@@H](CO)[C@H](O)[C@@H](O)[C@@H]2NC)[C@@H](N/C(N)=N\[H])[C@@H]1O` [Streptomycin], for which the Antibiotic resistance entry runs as follows: (antibiotic at 5 μg/ml) “resistant”; (antibiotic at 10 μg/ml) “resistant”; (antibiotic at 20 μg/ml) “resistant”; (antibiotic at 50 μg/ml) “resistant”.
For the molecule `CN[C@@H]1[C@@H](O[C@H]2O[C@H](CO)[C@@H](N)[C@H](O)[C@H]2O)OC2C[C@@H](N)[C@@H](O[C@H]3[C@H](O)[C@@H](O)[C@H](N)C[C@@H]3N)OC2[C@@H]1O` (some centres unmarked) [Apramycin], the Antibiotic resistance result runs as follows: (antibiotic at 5 μg/ml) “sensitive”; (antibiotic at 10 μg/ml) “sensitive”; (antibiotic at 20 μg/ml) “sensitive”; (antibiotic at 50 μg/ml) “sensitive”.
Regarding `C=C(NC(=O)C(=C)NC(=O)c1csc(C2=N[C@@H]3c4csc(n4)[C@H]4NC(=O)c5csc(n5)[C@H]([C@](C)(O)[C@@H](C)O)NC(=O)[C@H]5CSC(=N5)/C(=C/C)NC(=O)[C@H]([C@@H](C)O)NC(=O)c5csc(n5)[C@]3(CC2)NC(=O)[C@H](C)NC(=O)C(=C)NC(=O)[C@H](C)NC(=O)[C@H]([C@@H](C)CC)N[C@@H]2C=Cc3c([C@H](C)O)cc(nc3[C@H]2O)C(=O)O[C@@H]4C)n1)C(N)=O` [Thiostrepton], the Antibiotic resistance entry is on record as “sensitive” (antibiotic at 5 μg/ml), “sensitive” (antibiotic at 10 μg/ml), “sensitive” (antibiotic at 20 μg/ml) and “sensitive” (antibiotic at 50 μg/ml).
Take Neomycin: the Antibiotic resistance result (antibiotic at 5 μg/ml) was “sensitive”, the Antibiotic resistance entry (antibiotic at 10 μg/ml) was “sensitive”, the Antibiotic resistance entry (antibiotic at 20 μg/ml) is recorded as “sensitive” and the Antibiotic resistance entry (antibiotic at 50 μg/ml) is reported as “sensitive”.
As to `CO[C@H]1/C=C/O[C@@]2(C)Oc3c(C)c(O)c4c(O)c(cc(O)c4c3C2=O)NC(=O)/C(C)=C\C=C\[C@H](C)[C@H](O)[C@@H](C)[C@@H](O)[C@@H](C)[C@H](OC(C)=O)[C@@H]1C` [Rifamycin], the Antibiotic resistance result is recorded as “resistant” (antibiotic at 5 μg/ml), “resistant” (antibiotic at 10 μg/ml), “resistant” (antibiotic at 20 μg/ml) and “sensitive” (antibiotic at 50 μg/ml).
